Source: publication PMC12036875, “Mitochondria-targeting natural product rhein conjugated with dichloroacetate as the dual inhibitor of glycolysis and oxidative phosphorylation to off energize cancer cells and induce ROS storm” (Theranostics, 2025)

Key:
4T1 cells = test: Mitochondrial membrane potential assay, JC-1; format: cell-based, Mouse; conditions: 6.25 μM, 24 h; for JC-1 green/red fluorescence (Δψm), in words: vs control
Source text: On the other hand, rhein could also disturb mitochondria, the camp of OXPHOS, to further prevent cancer cells from obtaining ATP by inducing pathological opening of mPTP [30]. We first detected mPTP on 4T1 cancer cells treated with indicated drugs according to the mPTP assay kit. The green fluorescence of Calcein AM in mitochondria would vanish when the quencher entered mitochondria through the opened mPTP channel. […] The sustained opening of mPTP along with the loss of Δψm. Thus, we further examined the Δψm of 4T1 cancer cells with JC-1 fluorescence dyes and tetramethylrhodamine, ethyl ester (TMRE) probe. The JC-1 dyes underwent a transition from aggregated red fluorescence to monomeric green fluorescence with mitochondrial depolarization in cells, and the increase of green/red fluorescence intensity ratio of JC-1 dyes indicated mitochondrial depolarization.
TMRE is a lipophilic cationic fluorescent probe (Ex = 550 nm, Em = 575 nm). The accumulation of TMRE within the mitochondria would reduce with the mitochondrial depolarization, resulting in a decrease in fluorescence intensity. […] The integrity of mitochondria is significant for mitochondrial bioenergy production. Given the influence of ETC, NADH dehydrogenase, ATP synthase and the decrease of Δψm, we speculated that the ATP production from OXPHOS would be hindered by Rhein-DCA conjugate. Mitochondrial bioenergetic processes of 4T1 cells was measured by oxygen consumption rate (OCR) to reflect the capability of OXPHOS.
JC-1: The Δψm was performed using the JC-1 assay with flow cytometry and confocal microscope. 4T1 cells were separately seeded into 6-well plates and confocal dishes at a density of 10 × 10^4 cells per well and cultured at 37 °C for 24 h. Cells were cultured with PBS, rhein (6.25 μM), DCA (6.25 μM), R + D (6.25 μM + 6.25 μM) and Rhein-DCA (6.25 μM) for another 24 h. […] Samples were then immediately detected by flow cytometry and imaged with confocal microscope.

PDK1 = molecular target: T1, PDK1 (Homo sapiens, UniProt O15530); test: PDK1 kinase activity assay (ADP-Glo); format: biochemical; conditions: 0.08, 0.4, 2 μM; 30 min pre-incubation; effect of Rhein-DCA at 2 μM
T1 construct: purchased Promega Biotech Co., Ltd (USA)
T1 sequence (O15530 1-556): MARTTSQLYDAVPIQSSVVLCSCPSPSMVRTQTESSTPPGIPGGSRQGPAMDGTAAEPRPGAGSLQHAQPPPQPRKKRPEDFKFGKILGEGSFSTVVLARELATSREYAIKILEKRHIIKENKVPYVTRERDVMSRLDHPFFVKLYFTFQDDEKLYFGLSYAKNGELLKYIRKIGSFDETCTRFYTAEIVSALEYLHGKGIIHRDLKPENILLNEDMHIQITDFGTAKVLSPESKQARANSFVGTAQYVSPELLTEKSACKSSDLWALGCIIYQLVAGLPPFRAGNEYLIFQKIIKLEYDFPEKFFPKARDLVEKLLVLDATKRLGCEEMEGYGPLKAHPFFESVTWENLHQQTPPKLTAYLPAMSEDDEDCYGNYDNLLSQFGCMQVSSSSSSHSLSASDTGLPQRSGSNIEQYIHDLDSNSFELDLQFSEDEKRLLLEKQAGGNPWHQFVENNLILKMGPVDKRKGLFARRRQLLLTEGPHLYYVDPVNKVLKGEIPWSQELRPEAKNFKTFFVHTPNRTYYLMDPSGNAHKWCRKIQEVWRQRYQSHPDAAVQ
Method: The elevated glycolytic metabolism in cancer cells would be blocked when the activity of the gate enzyme PDH was resumed through inhibiting overexpression of PDK1, followed by a decrease in lactate and energy production (Figure 2A). ADP-Glo^TM Kinase assay was initially employed to investigate the potential of Rhein-DCA conjugate to suppress PDK1 activity in vitro. PDK1 were separately incubated with rhein, DCA, and Rhein-DCA conjugate for 30 min for better binding, then the enzymatic substrate was added to the mixture to initiate the reaction. Finally, the luminescent signal representing PDK1 activity was recorded once the detection procedures were completed. More detailed experimental information was presented in the supporting information.
The inhibitory effect of PDK1 kinase was evaluated with the […] kinase assay. Firstly, PDK1 enzyme, PDK tide, ATP, and indicated drugs (dissolved in DMSO) were dissolved in kinase buffer. Then, 5 μL of compounds (rhein, DCA and Rhein-DCA) with diverse concentrations and 10 μL of PDK1 enzyme were dispensed to the 96-well plate and incubated for 30 min at room temperature. Next, 10 μL of PDK tide/ATP mixture was added and incubated at room temperature for 60 min. Finally, to halt the reaction and deplete the remaining ATP, 25 μL of ADP-Glo™ reagent was added to each well and incubated at room temperature for 40 min. 50 μL of kinase detection reagent was added and incubated at room temperature for another 30 min. Ultimately, the luminescence signal was recorded by multi-mode microplate reader (Integration time: 1 s). The concentrations of reagents employed in this assay were as follows: […]

[1] = tested on: tumor-associated macrophages in 4T1 tumors; test: Tumor-associated macrophages detection (flow cytometry); format: in vivo, Balb/c mice; conditions: primary 4T1 tumors; for M1 macrophages (CD80+ in CD11b+ cells) / M2 macrophages (CD206+ in CD11b+ cells): 20 mg/kg oral, 24 days; for M1 macrophages (CD80+ in CD11b+ cells): vehicle 5.8%; for M2 macrophages (CD206+ in CD11b+ cells): vehicle 36.5%
Method: To further investigate the immunomodulatory effects of the Rhein-DCA conjugate, we analyzed TAMs by flow cytometry, where CD11b and CD80 antibodies were labeled for M1-phenotype macrophages (Figure 7D), CD11b and CD206 antibodies were labeled for M2-phenotype macrophages (Figure 7E).
The macrophages within the tumor microenvironment of tumor tissues were further analyzed. Tumor tissues were minced into small pieces and then digested in a solution containing 1 mg/mL of collagenase IV, 0.1 mg/mL of hyaluronidase and 0.1 mg/mL of DNAase I at 37 °C for 1.5 h. The supernatants containing single cells were collected by filtering through 200 mesh filters. Cells were obtained by centrifugation and further blocked with anti-CD16/32 (1 μg/100 μL) for 10 min in an ice bath. Thereafter, FITC anti-mouse CD11b (1 μg/100 μL) and PE anti-mouse CD80 (1 μg/100 μL) antibodies were employed to stain the cells in an ice bath for 20 min. After that, the cells were collected and fixed with 4%-paraformaldehyde at room temperature for 20 min, and then stained with APC anti-mouse CD206 antibody (0.5 μg/100 μL, in 1 × Fix/Perm buffer) at room temperature in the dark for 20 min. Finally, cells were analyzed with flow cytometry after being resuspended in 1 × Perm/Wash buffer.

| SMILES | JC-1 green/red fluorescence (Δψm), in words (4T1 cells) | PDK1 activity (luminescent signal) (PDK1) | M1 macrophages (CD80+ in CD11b+ cells) [1] [%] | M2 macrophages (CD206+ in CD11b+ cells) [1] [%] | JC-1 green/red ratio relative to control group (4T1 cells) | M1 macrophages increase vs vehicle [1] [fold] | M2 macrophages reduction vs vehicle [1] [fold] |
| --- | --- | --- | --- | --- | --- | --- | --- |
| O=C(O)C(Cl)Cl [DCA, Dichloroacetate] | did not affect | did not exhibit obvious differences | 7.7 | 13.6 |  |  |  |
| O=C(O)c1cc(O)c2c(c1)C(=O)c1cccc(O)c1C2=O [Rhein, 4,5-dihydroxyanthraquinone-2-carboxylic acid] | relatively increased green/red ratio | almost negligible | 6.0 | 16.6 |  |  |  |
| O=C(OCCOC(=O)C(Cl)Cl)c1cc(O)c2c(c1)C(=O)c1cccc(O)c1C2=O [Rhein-DCA] |  | dramatically decreased | 10.3 | 3.9 | about 7 fold | 1.8 | 9.4 |
